Assay results taken from ChEMBL document CHEMBL4130359, “Indazole-based ligands for estrogen-related receptor α as potential anti-diabetic agents” (Eur J Med Chem, 2017).

Key:
Rattus norvegicus [1] = test: Toxicity in […] chronic ob/ob model assessed as food intake at 50 mg/kg, po qd for 28 days measured on day 1 to 28 during compound dosing (reference value: 170.6 +/- 3 g); format: organism-based; settings: in vivo, 672 h
Rattus norvegicus [2] = test: Toxicity in Zucker rat sub-chronic fa/fa prediabetic model assessed as heart weight at 3 mg/kg, po qd for 31 days measured on day 32 (reference value: 1.19 +/- 0.04 g); format: organism-based; settings: in vivo, 744 h
Rattus norvegicus [3] = test: Effect on AADAT gene expression in epididymal white adipose tissue of Zucker rat sub-chronic fa/fa prediabetic model at 10 mg/kg, po qd for 15 days by microarray analysis relative to control; format: functional
Rattus norvegicus [4] = test: Antidiabetic activity in Zucker rat sub-chronic fa/fa prediabetic model assessed as fasting blood insulin level at 1 mg/kg, po qd for 31 days measured on day 29 post dose (reference value: 8.5 +/- 1.4 ug/L); format: functional
Rattus norvegicus [5] = test: Toxicity in Zucker rat sub-chronic fa/fa prediabetic model assessed as triglyceride level per gram liver at 50 mg/kg, po qd for 31 days measured on day 32 (reference value: 163.4 +/- 8.3 mg); format: organism-based; settings: in vivo, 744 h
[6] = molecular target: Retinoic acid receptor RXR-alpha (Homo sapiens, UniProt P19793); test: Agonist activity at recombinant GST-tagged human RXRalpha LBD assessed as fluorescein-labeled coactivator peptide recruitment preincubated with enzyme followed by coactivator addition by LanthaScreen TR-FRET assay
Chain of Retinoic acid receptor RXR-alpha (P19793 whole entry, the tested form may be a part): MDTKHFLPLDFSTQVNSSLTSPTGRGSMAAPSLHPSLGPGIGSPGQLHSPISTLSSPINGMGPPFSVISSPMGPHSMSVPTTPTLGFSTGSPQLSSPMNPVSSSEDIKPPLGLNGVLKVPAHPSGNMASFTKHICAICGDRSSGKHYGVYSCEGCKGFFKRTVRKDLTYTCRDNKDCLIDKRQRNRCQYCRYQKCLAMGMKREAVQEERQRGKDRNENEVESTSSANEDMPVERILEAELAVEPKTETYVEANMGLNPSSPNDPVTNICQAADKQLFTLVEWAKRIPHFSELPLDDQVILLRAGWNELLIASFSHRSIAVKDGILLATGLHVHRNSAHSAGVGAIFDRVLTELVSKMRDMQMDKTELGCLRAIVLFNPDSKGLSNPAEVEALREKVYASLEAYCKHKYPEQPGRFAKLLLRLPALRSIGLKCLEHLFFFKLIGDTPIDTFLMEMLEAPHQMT

[7] = Cmax in […] chronic ob/ob model at 3 mg/kg, po qd for 28 days measured on day 28 post last dose; format: ADME, organism-based; design: dose 3 mg/kg, route oral; settings: in vivo
Rattus norvegicus [8] = test: Effect on MAOB gene expression in epididymal white adipose tissue of Zucker rat sub-chronic fa/fa prediabetic model at 10 mg/kg, po qd for 15 days by microarray analysis relative to control; format: functional
Rattus norvegicus [9] = test: Toxicity in Zucker rat sub-chronic fa/fa prediabetic model assessed as insulin level per gram pancreas at 3 mg/kg, po qd for 31 days measured on day 32 (reference value: 55.2 +/- 5.5 ug); format: organism-based; settings: in vivo, 744 h
[10] = Cmax in ob/ob mouse at 18 mg/kg administered via oral gavage by LC-MS analysis; format: ADME, organism-based; design: dose 18 mg/kg, route oral; settings: in vivo
Rattus norvegicus [11] = test: Toxicity in Zucker rat sub-chronic fa/fa prediabetic model assessed as serum AST level at 50 mg/kg, po qd for 31 days measured on day 32 (reference value: 187 +/- 37 U/L); format: organism-based; settings: in vivo, 744 h
Rattus norvegicus [12] = test: Effect on TXNRD2 gene expression in epididymal white adipose tissue of Zucker rat sub-chronic fa/fa prediabetic model at 10 mg/kg, po qd for 15 days by microarray analysis relative to control; format: functional
[13] = molecular target: Peroxisome proliferator-activated receptor delta (Homo sapiens, UniProt Q03181); test: Antagonist activity at recombinant GST-tagged human PPARdelta LBD assessed as inhibition of GW0742-induced fluorescein-labeled coactivator peptide recruitment preincubated with enzyme followed by coactivator addition by LanthaScreen TR-FRET assay
Chain of Peroxisome proliferator-activated receptor delta (Q03181 whole entry, the tested form may be a part): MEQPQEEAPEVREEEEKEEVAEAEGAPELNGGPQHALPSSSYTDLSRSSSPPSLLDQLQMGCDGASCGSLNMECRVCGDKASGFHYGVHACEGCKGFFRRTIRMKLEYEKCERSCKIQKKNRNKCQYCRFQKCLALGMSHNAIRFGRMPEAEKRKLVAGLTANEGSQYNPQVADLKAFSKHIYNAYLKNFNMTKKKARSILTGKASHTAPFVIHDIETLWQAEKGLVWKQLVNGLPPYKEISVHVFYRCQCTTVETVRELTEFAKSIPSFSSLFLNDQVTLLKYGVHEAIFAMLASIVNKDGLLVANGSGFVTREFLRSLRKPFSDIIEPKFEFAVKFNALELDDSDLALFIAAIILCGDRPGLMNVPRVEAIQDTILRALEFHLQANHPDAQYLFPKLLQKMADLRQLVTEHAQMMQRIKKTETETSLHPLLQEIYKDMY

[14] = AUC (0 to 24 hrs) in Zucker rat sub-chronic fa/fa prediabetic model at 10 mg/kg, po qd measured on day 1 post dose; format: ADME, organism-based; design: time < 24 hr, dose 10 mg/kg, route oral; settings: in vivo
[15] = Cmax in […] chronic ob/ob model at 10 mg/kg, po qd measured on day 1 post dose; format: ADME, organism-based; design: dose 10 mg/kg, route oral; settings: in vivo
Rattus norvegicus [16] = test: Toxicity in Zucker rat sub-chronic fa/fa prediabetic model assessed as serum AST level at 10 mg/kg, po qd for 31 days measured on day 32 (reference value: 187 +/- 37 U/L); format: organism-based; settings: in vivo, 744 h
Rattus norvegicus [17] = test: Effect on ACOT4 gene expression in epididymal white adipose tissue of Zucker rat sub-chronic fa/fa prediabetic model at 10 mg/kg, po qd for 15 days by microarray analysis relative to control; format: functional
[18] = Drug uptake in fat tissue of Zucker rat sub-chronic fa/fa prediabetic model at 12.5 mg/kg, po qd for 11 days; format: ADME, organism-based, Adipose tissue; settings: read-out: Drug uptake
Rattus norvegicus [19] = test: Effect on YWHAG gene expression in epididymal white adipose tissue of Zucker rat sub-chronic fa/fa prediabetic model at 10 mg/kg, po qd for 15 days by microarray analysis relative to control; format: functional
[20] = Cmax in Zucker rat sub-chronic fa/fa prediabetic model at 3 mg/kg, po qd for 26 days measured on day 26 post last dose; format: ADME, organism-based; design: dose 3 mg/kg, route oral; settings: in vivo
[21] = Cmax in Zucker rat sub-chronic fa/fa prediabetic model at 50 mg/kg, po qd for 26 days measured on day 26 post last dose; format: ADME, organism-based; design: dose 50 mg/kg, route oral; settings: in vivo
Rattus norvegicus [22] = test: Antidiabetic activity in po dosed Zucker rat sub-chronic fa/fa prediabetic model assessed as reduction in blood glucose AUC (0 to 120 min) once daily for 31 days measured on day 29 post dose by OGTT; format: functional, organism-based
Rattus norvegicus [23] = test: Toxicity in […] model assessed as serum AST level at 50 mg/kg, po qd for 31 days measured on day 32 (reference value: 180 +/- 26 U/L); format: organism-based; settings: in vivo, 744 h
Rattus norvegicus [24] = test: Effect on NDUFS4 gene expression in epididymal white adipose tissue of Zucker rat sub-chronic fa/fa prediabetic model at 10 mg/kg, po qd for 15 days by microarray analysis relative to control; format: functional
Rattus norvegicus [25] = test: Toxicity in […] model assessed as liver weight at 10 mg/kg, po qd for 31 days measured on day 32 (reference value: 2.77 +/- 0.16 g); format: organism-based; settings: in vivo, 744 h
Rattus norvegicus [26] = test: Effect on NFKB1 gene expression in epididymal white adipose tissue of Zucker rat sub-chronic fa/fa prediabetic model at 10 mg/kg, po qd for 15 days by microarray analysis relative to control; format: functional
Rattus norvegicus [27] = test: Effect on PFKFB1 gene expression in epididymal white adipose tissue of Zucker rat sub-chronic fa/fa prediabetic model at 10 mg/kg, po qd for 15 days by microarray analysis relative to control; format: functional
[28] = Cmax in Zucker rat sub-chronic fa/fa prediabetic model at 1 mg/kg, po qd measured on day 1 post dose; format: ADME, organism-based; design: dose 1 mg/kg, route oral; settings: in vivo
[29] = molecular target: Oxysterols receptor LXR-beta (Homo sapiens, UniProt P55055); test: Agonist activity at recombinant GST-tagged human LXRbeta LBD assessed as fluorescein-labeled coactivator peptide recruitment preincubated with enzyme followed by coactivator addition by LanthaScreen TR-FRET assay
Chain of Oxysterols receptor LXR-beta (P55055 whole entry, the tested form may be a part): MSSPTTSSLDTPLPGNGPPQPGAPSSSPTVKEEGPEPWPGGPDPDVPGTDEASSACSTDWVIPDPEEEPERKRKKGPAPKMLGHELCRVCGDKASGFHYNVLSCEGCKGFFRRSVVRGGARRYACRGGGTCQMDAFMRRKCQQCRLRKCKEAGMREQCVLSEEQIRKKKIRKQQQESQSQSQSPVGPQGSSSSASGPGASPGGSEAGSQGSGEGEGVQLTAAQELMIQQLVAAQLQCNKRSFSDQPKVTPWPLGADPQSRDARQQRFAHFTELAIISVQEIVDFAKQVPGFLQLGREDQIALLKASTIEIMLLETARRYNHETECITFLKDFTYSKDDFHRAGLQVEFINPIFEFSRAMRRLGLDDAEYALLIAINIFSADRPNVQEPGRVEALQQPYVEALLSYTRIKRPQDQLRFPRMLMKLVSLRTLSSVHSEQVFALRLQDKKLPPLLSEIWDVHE

Rattus norvegicus [30] = test: Effect on PCCB gene expression in epididymal white adipose tissue of Zucker rat sub-chronic fa/fa prediabetic model at 10 mg/kg, po qd for 15 days by microarray analysis relative to control; format: functional
[31] = AUC (0 to 24 hrs) in Sprague-Dawley rat at 10 mg/kg administered via oral gavage by LC-MS analysis; format: ADME, organism-based; design: dose 10 mg/kg, time < 24 hr, route oral; settings: in vivo
[32] = Cmax in […] at 15 mg/kg administered via oral gavage by LC-MS analysis; format: ADME, organism-based; design: dose 15 mg/kg, route oral; settings: in vivo
Rattus norvegicus [33] = test: Toxicity in Zucker rat sub-chronic fa/fa prediabetic model assessed as serum BUN level at 50 mg/kg, po qd for 31 days measured on day 32 (reference value: 28.3 +/- […]); format: organism-based; settings: in vivo, 744 h
Rattus norvegicus [34] = test: Toxicity in Zucker rat sub-chronic fa/fa prediabetic model assessed as serum cholesterol level at 50 mg/kg, po qd for 31 days measured on day 32 (reference value: 295 +/- 91 mg/dl); format: organism-based; settings: in vivo, 744 h

**Q.** Which Activity (Rattus norvegicus [1]) does the source give for CN1CC[C@@H](N2C(=O)S/C(=C\c3ccc4c(cnn4Cc4ccc(Cl)cc4C(F)(F)F)c3)C2=O)[C@H](F)C1 here?
**A.** Its Activity is 152.4 g.

**Q.** And the Activity (Rattus norvegicus [2])?
**A.** Its Activity is 1.15 g.

**Q.** And the “fold change (FC)” value (Rattus norvegicus [3])?
**A.** Its value is 2.931.

**Q.** What about the Activity (Rattus norvegicus [4]) of the same compound?
**A.** Its Activity is 5 µg/L.

**Q.** What about the Activity (Rattus norvegicus [5]) of the same compound?
**A.** The Activity was 69.4 mg.

**Q.** And the EC50 [6]?
**A.** The EC50 was greater than 10 µM.

**Q.** And the Cmax [7]?
**A.** The Cmax was 0.223 µg/mL.

**Q.** What about the “fold change (FC)” value (Rattus norvegicus [8]) of the same compound?
**A.** The value was -1.452.

**Q.** What about the Activity (Rattus norvegicus [9]) of the same compound?
**A.** The Activity was 90.7 µg.

**Q.** What about the Cmax [10] of the same compound?
**A.** Its Cmax is 0.829 µg/mL.

**Q.** And the Activity (Rattus norvegicus [11])?
**A.** The Activity was 87 U/L.

**Q.** And the “fold change (FC)” value (Rattus norvegicus [12])?
**A.** Its value is 1.311.

**Q.** And the IC50 [13]?
**A.** Its IC50 is greater than 10 µM.

**Q.** And the AUC(0-t) at 24 h [14]?
**A.** The AUC(0-t) at 24 h was 18.1 µg·h/mL.

**Q.** What about the Cmax [15] of the same compound?
**A.** The Cmax was 0.52 µg/mL.

**Q.** And the Activity (Rattus norvegicus [16])?
**A.** The Activity was 98 U/L.

**Q.** What about the “fold change (FC)” value (Rattus norvegicus [17]) of the same compound?
**A.** The value was 2.122.

**Q.** And the concentration at 264 h [18]?
**A.** Its concentration at 264 h is 58100 ng/g.

**Q.** And the “fold change (FC)” value (Rattus norvegicus [19])?
**A.** The value was 1.255.

**Q.** And the Cmax [20]?
**A.** Its Cmax is 1.22 µg/mL.

**Q.** And the Cmax [21]?
**A.** Its Cmax is 7.66 µg/mL.

**Q.** What about the Activity (Rattus norvegicus [22]) of the same compound?
**A.** Its Activity is “Dose-dependent effect”.

**Q.** What about the Activity (Rattus norvegicus [23]) of the same compound?
**A.** Its Activity is 199 U/L.

**Q.** And the “fold change (FC)” value (Rattus norvegicus [24])?
**A.** Its value is 1.239.

**Q.** What about the Activity (Rattus norvegicus [25]) of the same compound?
**A.** Its Activity is 2.67 g.

**Q.** What about the “fold change (FC)” value (Rattus norvegicus [26]) of the same compound?
**A.** Its value is -1.254.

**Q.** What about the “fold change (FC)” value (Rattus norvegicus [27]) of the same compound?
**A.** Its value is 1.634.

**Q.** And the Cmax [28]?
**A.** The Cmax was 0.262 µg/mL.

**Q.** What about the EC50 [29] of the same compound?
**A.** Its EC50 is greater than 10 µM.

**Q.** And the “fold change (FC)” value (Rattus norvegicus [30])?
**A.** The value was -1.413.

**Q.** What about the AUC(0-t) at 24 h [31] of the same compound?
**A.** The AUC(0-t) at 24 h was 5.41 µg·h/mL.

**Q.** And the Cmax [32]?
**A.** The Cmax was 4.02 µg/mL.

**Q.** What about the Activity (Rattus norvegicus [33]) of the same compound?
**A.** The Activity was 23.9 mg/dL.

**Q.** And the Activity (Rattus norvegicus [34])?
**A.** The Activity was 203 mg/dL.
